{"source": "patent US20100240627A1", "about": "“COMPOSITION AND METHODS RELATING TO GLUCOCORTICOID RECEPTOR-ALPHA AND PEROXISOME PROLIFERATOR-ACTIVATED RECEPTORS” (Universiteit Gent, priority 2007, published 2010)", "key": {"TRAP5b": {"tested_on": "TRAP5b", "assay": "Serum TRAP5b ELISA in DBA/1 mice", "type": "in vivo, mouse", "conditions": "DBA/1 mice serum, daily treatment 8 days", "source_text": "(§1) Male 8- to 12-wk-old DBA/1 mice are purchased from Janvier and housed following institutional guidelines. All animal procedures are approved by the institutional animal care and ethics committee. […] The experiment is repeated with agonists for PPARα replaced by the respective agonists for PPARγ (rosiglitazone) or PPARβ/δ (L165041). At day 8, murine serum is collected and used for the determination of TRAP5b and osteocalcin levels. The Mouse TRAP™ Assay is purchased from Immunodiagnostic Systems Ltd. The Mouse Osteocalcin EIA kit is purchased from Biomedical Technologies, Inc. All assays are performed according to the manufacturer's guidelines.\n(§2) The experiment is repeated with agonists for PPARα replaced by the respective agonists for PPARγ (rosiglitazone) or PPARβ/δ(L165041). A TRAP5b ELISA assay is performed for the detection of differentiated osteoclasts."}, "calvarial cells": {"tested_on": "calvarial cells", "assay": "Ex vivo osteoclastogenesis and osteoblast differentiation of calvarial cells", "type": "cell-based, mouse", "conditions": "pharmacological DEX concentrations", "description": "Glucocorticoid-induced osteoporosis (GIO) has been considered one of the most debilitating side-effects related to long-term GC usage (Berris, Repp et al. Curr Opin Endocrinol Diabetes Obes 14(6): 446-50). The effects of compositions and methods of the present invention on glucocorticoid-induced osteoporosis is determined by analysis of markers of osteoclastogenesis, including cathepsin K, M-CSF, RANKL and OPG. Since it is believed that an increase in bone resorption is worsened by inhibition of new bone formation, thereby contributing to the GC-mediated decrease in bone mineral density, the effect compositions and methods of the present invention on osteoblast differentiation is determined using calvarial cells isolated from 3-5 day old mice.\nAlkaline phosphatase staining and Q-PCR are performed for the detection of Collal, Alkp, Runx-2 and Bglap (osteocalcin) expression after 10 days of osteoblast differentiation. Alizarin Red staining is performed to determine extracellular calcium deposition after 20 days of osteoblast differentiation.\nCalvarial cells are isolated from 3-5 day old mice (SV 129 background). A piece of the tail is isolated for genotyping. The pups are decapitated with scissors in the laminar flow cabinet, skin and brain are removed and the calvaria transferred into eppendorf tubes containing 1 ml PBS+1% Pen/Strep. The tubes are put on ice until digestion. […]"}, "osteocalcin": {"tested_on": "osteocalcin", "assay": "Serum osteocalcin in DBA/1 mice", "type": "in vivo, mouse", "conditions": "daily treatment 8 days", "source_text": "as §1, §2"}, "ACO mRNA in mouse liver": {"tested_on": "ACO mRNA in mouse liver", "assay": "Liver ACO mRNA in treated mice", "type": "in vivo", "conditions": "DEX 10 mg/kg i.p., FF 200 mg/kg gavage, daily 5 days", "source_text": "Female C57BL6J mice are used at 8 weeks. Mice are randomized to four groups (six mice/group) and matched for body weight. Animals are killed by cervical dislocation after which thymus and liver are recovered and weighed. Total RNA is extracted from liver as described below. ANOVA is used for all analyses, followed by Scheffe post-hoc tests for treated vs control comparisons. The level of significance for all statistical analyses is set at p<0.05.\nGILZ and ACO mRNA expression levels from the liver are quantified via QPCR and normalized for household gene expression. Results from triplicates are shown ±SD. Results are represented as relative expression fold, i.e. with the solvent-treated control value taken as 1."}, "[1]": {"tested_on": "TNF-induced IL-6 production in L929sA cells", "assay": "TNF-induced IL-6 production, murine IL-6 ELISA", "type": "cell-based", "conditions": "1 h pre-incubation, TNF 200 IU/ml 24 h, DEX 0.01 μM, GW647 0.25-1 μM, WY 2-10 μM, FIG. 1", "description": "Murine IL-6 ELISA is performed using a kit from Biosource.\nMedium is collected to perform a murine IL-6 ELISA. Protein levels obtained in ng/ml are calculated as % of max TNF response. Results are shown ±SD. **P<0.01, ***P<0.001 in FIG. 1."}, "[2]": {"tested_on": "NF-κB-driven gene expression", "assay": "p(IL6κB)350hu.IL6P-luc reporter in transfected HEK293T cells", "type": "cell-based", "conditions": "TNF 2000 IU/ml 8 h", "description": "(§3) Cell lysates are assayed for luciferase activities and normalized for β-gal activities. A representative of three independent experiments is shown."}, "[3]": {"tested_on": "GRE-driven gene expression", "assay": "p(GRE)2-50-luc reporter in transfected HEK293T cells", "type": "cell-based", "conditions": "8 h, DEX 1 or 0.1 μM", "description": "as §3"}, "[4]": {"tested_on": "GRE-driven gene transcription", "assay": "p(GRE)2-50-luc reporter in HepG2 cells", "type": "cell-based, human", "conditions": "HepG2 overexpressing PPARα (pSG5PPARα); 8 h", "protocol": "HepG2 and BWTG3 cells are transiently transfected using Lipofectamine according to the manufacturer's instructions, HEK293T cells using CaPO4. At day −1 40,000-50,000 cells/24-well are seeded. At day 0, medium is replaced by 360 μl of fresh normal medium with 10% serum to the cells. The DNA mix is prepared by dissolving (per 24-well) 400 ng of DNA in 20 μl of TE/CaCl2 solution. The DNA-containing mixture is added dropwise to 20 μl BS/Hepes mixture. All is mixed until a fine precipitate is visible. This precipitate is finally added onto the 360 μl medium. After 8 h, medium is replaced with fresh normal medium with 10% serum and inductions are performed the following day. […]\nLuc and β-gal assays are carried out according to instructions of the manufacturer (Promega). Luc activity, expressed in arbitrary light units, is corrected for the protein conc. in the sample by normalization to constitutive β-gal levels. β-gal levels are quantified with a chemiluminescent reporter assay Galacto-Light kit (TROPIX, Bedford, Mass.).\nHepG2 cells are transiently transfected with p(GRE)2-50-luc, and pSG5PPARα (black bars) or pSG5 (white bars). […] Promoter activities are expressed as relative induction factor, i.e., the ratio of expression levels of induced versus non-induced conditions."}, "[5]": {"tested_on": "PDK-4 mRNA (PPARα target gene)", "assay": "PDK-4 mRNA in primary hepatocytes of WT and PPARα KO mice", "type": "cell-based, mouse", "conditions": "24 h, GW9578 500 nM, WY 10 μM", "description": "Mouse hepatocytes are isolated by collagenase perfusion from livers of wild type and PPARα KO (PPARα−/−) mice essentially using the collagenase method (18), with several modifications. Mouse livers are perfused with Hanks' balanced salt solution (HBSS, Sigma) at a rate of 5 ml/min via cave vein before addition of collagenase Type IV (0.025%, Sigma). Cell viability is assessed by a Trypan Blue exclusion test. […] After overnight incubation, cells are incubated in a fresh William's E medium supplemented with different compounds, DEX and/or PPARα agonists."}, "mouse PPARα": {"target": "T1, mouse PPARα (Mus musculus, UniProt P23204)", "T1 sequence (P23204 1-468)": "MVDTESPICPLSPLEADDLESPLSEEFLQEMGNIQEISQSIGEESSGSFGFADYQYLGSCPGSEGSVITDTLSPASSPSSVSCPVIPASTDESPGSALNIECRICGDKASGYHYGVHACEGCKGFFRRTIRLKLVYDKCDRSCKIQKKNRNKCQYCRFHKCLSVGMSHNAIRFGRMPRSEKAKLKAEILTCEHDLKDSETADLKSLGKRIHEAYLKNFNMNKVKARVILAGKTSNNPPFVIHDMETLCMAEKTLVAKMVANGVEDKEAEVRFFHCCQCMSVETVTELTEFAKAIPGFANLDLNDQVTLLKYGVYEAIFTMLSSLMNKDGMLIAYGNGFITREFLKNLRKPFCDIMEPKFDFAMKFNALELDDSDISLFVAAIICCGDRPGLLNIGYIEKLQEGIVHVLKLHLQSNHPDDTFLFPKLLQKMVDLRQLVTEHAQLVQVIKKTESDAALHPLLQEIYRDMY", "conditions": "cited from earlier work"}, "cathepsin K": {"tested_on": "cathepsin K", "assay": "Cathepsin K expression in MG63b osteosarcoma cells", "type": "cell-based, human", "conditions": "24 hour, DEX 10^−6M, WY 10 μM", "protocol": "Cell culture—Human osteosarcoma cells MG63b and Saos-2 are cultured in Dulbecco Modified Eagle's Medium (DMEM) and McCoy's 5a Medium respectively, supplemented with 10% fetal calf serum (FCS), 100 units/ml penicillin and 0.1 mg/ml streptomycin. RT-PCR—After the appropriate inductions RNA is isolated from the cells by means of the RNeasy mini kit (Qiagen) according to the manufacturer's instructions. The mRNA is reverse transcribed with the verso cDNA kit (ABgene). The obtained cDNA is amplified by a quantitative PCR reaction with iQ Custom SYBR Green Supermix (Biorad). Gene expression of the housekeeping gene hypoxanthine-guanine phosphoribosyltransferase (HPRT) is used for normalization."}, "[6]": {"tested_on": "Glucocorticoid-induced Leucine Zipper (GILZ) mRNA", "assay": "QPCR of GILZ mRNA in HepG2 cells", "type": "cell-based, human", "conditions": "HepG2 (and A549) cells, 3 h; co-treatment compared to DEX alone", "description": "(§4) RNA extraction is performed as described before (12). RNA is isolated from cells by using TRIzol reagent (Invitrogen) according to the manufacturer's instructions. The reverse transcriptase reaction is done by using MLV enzyme (Promega) followed by a PCR reaction with Taq polymerase (Promega) on the obtained cDNA. cDNA is analyzed either by a semi-quantitative PCR using Taq polymerase (Promega) or by real-time PCR with a SYBR Green mastermix (Invitrogen). Primers for QPCR of mIL-6: fwd […] (SEQ ID No. 1) and rev […] (SEQ ID No. 2); for mGILZ: fwd […] (SEQ ID No. […]) and rev […] (SEQ ID No. 4); for hGILZ: fwd […] (SEQ ID No. 5) and rev […] (SEQ ID No. 6); for mG6Pase: fwd […] (SEQ ID No. 7) and rev […] (SEQ ID No. 8); for rMCP-1: fwd […] (SEQ ID No. 9) and rev […] (SEQ ID No. 10); for mMMP-9: […] (SEQ ID No. 11) and rev […] (SEQ ID No. 12). Primers for semi-QPCR of hPLAP: fwd […] (SEQ ID No. 13) and rev […] (SEQ ID No. 14).\nHepG2 cells and FTO2B cells are incubated with the indicated agents for three hours. mRNA is isolated, reverse transcribed and the resulting cDNA is subjected to SYBR green QPCR with primers to detect G6Pase or Glucocorticoid-induced Leucine Zipper (GILZ). QPCR measurements are performed in triplicate. QPCR results, normalized to expression of household genes, are shown ±SD, in FIGS. 2B and 2C. […]"}, "[7]": {"tested_on": "human placental alkaline phosphatase (hPAP) mRNA", "assay": "Semi-quantitative PCR of hPAP mRNA", "type": "cell-based", "conditions": "HepG2 and A549 cells, 8 h; DEX 1 μM, WY 10 μM; co-treatment compared to DEX alone", "description": "as §4\nA549 or HepG2 cells are treated for eight hours, mRNA is isolated, reverse transcribed and the resulting cDNA is subjected to semi-quantitative PCR analysis with primers to detect GAPDH (loading control) or hPAP in the same sample. […] Treatment with WY alone has no effect on hPAP mRNA expression."}}, "data": [{"smiles": "C[C@@H]1C[C@H]2[C@@H]3CCC4=CC(=O)C=C[C@]4(C)[C@@]3(F)[C@@H](O)C[C@]2(C)[C@@]1(O)C(=O)CO", "note": "[DEX, dexamethasone]", "values": [{"measurement": "TRAP5b levels", "setting": "TRAP5b", "value": "upregulates TRAP5b levels after 8 days"}, {"measurement": "osteoclastogenesis", "setting": "calvarial cells", "value": "inhibit osteoclastogenesis"}, {"measurement": "amount of osteocalcin in murine serum", "setting": "osteocalcin", "value": "significantly lowers"}, {"measurement": "ACO mRNA levels in liver", "setting": "ACO mRNA in mouse liver", "value": "no effect"}]}, {"smiles": "CC(C)(Sc1ccc(CCN(CCCCC2CCCCC2)C(=O)NC2CCCCC2)cc1)C(=O)O", "note": "[GW647, 2-(4-(2-(1-Cyclohexanebutyl-3-cyclohexylureido)ethyl)phenylthio)-2-methylpropionic acid]", "values": [{"measurement": "TNF-induced IL-6 production", "setting": "[1]", "value": "inhibited TNF-induced IL-6 production in a dose-responsive manner"}, {"measurement": "NF-κB-driven gene expression (luc)", "setting": "[2]; HEK293T with pSVhGRα and pSG5PPARα, GW647 0.5 μM, FIG. 12A", "value": "inhibits NF-κB-driven gene expression"}, {"measurement": "GRE-driven gene expression (luc)", "setting": "[3]; HEK293T with pSVhGRα and pSG5PPARα, GW647 0.5 μM, FIG. 13A", "value": "able to antagonize GRE-driven gene expression"}, {"measurement": "DEX-induced luciferase activity of p(GRE)2-50-luc", "setting": "[4]", "value": "further enhanced"}]}, {"smiles": "CCCCCCCN(CCc1ccc(SC(C)(C)C(=O)O)cc1)C(=O)Nc1ccc(F)cc1F", "note": "[GW9578]", "values": [{"measurement": "PDK-4 mRNA levels", "setting": "[5]", "value": "significant increase in PDK-4 mRNA levels only in WT cells"}, {"measurement": "EC50", "setting": "mouse PPARα", "value": 5, "unit": "nM"}]}, {"smiles": "CCCc1c(OCCCOc2ccc(OCC(=O)O)cc2)ccc(C(C)=O)c1O", "note": "[L165041]", "values": [{"measurement": "NF-κB-driven gene expression (luc)", "setting": "[2]; HEK293T with pSVhGRα and pSG5PPARδ, L165041, FIG. 12B", "value": "efficiently inhibit NF-κB-driven gene expression"}, {"measurement": "GRE-driven gene expression (luc)", "setting": "[3]; HEK293T with pSVhGRα and pSG5PPARδ, L165041 1 μM, FIG. 13B", "value": "able to antagonize the GRE-driven gene expression"}]}, {"smiles": "O=S(=O)(c1ccccc1)N(CC(F)(F)F)c1ccc(C(O)(C(F)(F)F)C(F)(F)F)cc1", "note": "[T0901317]", "values": [{"measurement": "NF-κB-driven gene expression (luc)", "setting": "[2]; HEK293T with pSVhGRα and LXR plasmid, T0901317 1 μM, FIG. 12C", "value": "efficiently inhibit NF-κB-driven gene expression"}, {"measurement": "GRE-driven gene expression (luc)", "setting": "[3]; HEK293T with pSVhGRα and pCMX-LXR, T0901317 1 μM, FIG. 13C", "value": "not able to antagonize GRE-driven gene expression"}]}, {"smiles": "Cc1cccc(Nc2cc(Cl)nc(SCC(=O)O)n2)c1C", "note": "[WY, [[4-chloro-6-[(2,3-dimethylphenyl)amino]-2-pyrimidinyl]thio]-acetic acid]", "values": [{"measurement": "cathepsin K expression", "setting": "cathepsin K", "value": "prevent or reverse the upregulation"}, {"measurement": "TNF-induced IL-6 production", "setting": "[1]", "value": "inhibited TNF-induced IL-6 production in a dose-responsive manner"}, {"measurement": "PDK-4 mRNA levels", "setting": "[5]", "value": "significant increase in PDK-4 mRNA levels only in WT cells"}, {"measurement": "GILZ mRNA expression", "setting": "[6]", "value": "no effect"}, {"measurement": "DEX-induced luciferase activity of p(GRE)2-50-luc", "setting": "[4]", "value": "confirmed"}, {"measurement": "hPAP mRNA expression", "setting": "[7]", "value": "no effect"}]}]}
